≈ marks a conversion by molar mass, not a printed value. Where a SMILES comes first, the peptide text is derived from it.
Legend:
B. subtilis [1] = format: cell-based, Bacillus subtilis (ATCC, 11774); details: micro-broth dilution, 3 h peptide treatment then MHB 18 h, 37 °C, OD 600 nm
From the text: (§1) The microbial strains used in this study were Bacillus subtilis (ATCC, 11774), Candida albicans (TIMM, 1768), Enterococcus faecalis (ATCC, 33186), Escherichia coli (ATCC, 11775), Klebsiella pneumoniae (ATCC, 13883), Methicillin-resistant Staphylococcus aureus (ATCC, BAA-41), Pseudomonas aeruginosa (ATCC, 10145), Salmonella enterica (ATCC, 14028), Serratia marcescens (ATCC, 13880), Staphylococcus aureus (ATCC, 25923) and Vibrio parahaemolyticus (ATCC, 17802). All microbial strains were cultivated overnight at 37 °C and 200 rpm, then subcultured and incubated for 3 h under the same incubation conditions to obtain the mid-logarithmic growth phase. The cultivated cells were washed twice with 10 mM Tris–HCl containing 5 mM D-glucose at pH 7.4 and suspended in the same buffer to be used in different assays, as previously described.
(§2) As a conclusive quantitative assessment, broth microtiter assay was used to determine the MIC values of each cryptide against B. subtilis, MRSA, S. enterica, P. aeruginosa, V. parahaemolyticus and C. albicans by following the guidelines of the Clinical and Laboratory Standards Institute (CLSI)[67], with slight modifications. Eighty microliters of 5 × 10^4 CFU/ml of each pathogen were dispensed into a 96-well polypropylene microtiter plate. The wells were then treated with 20 µl of serially diluted cryptides for 3 h at 37 °C. Gentamicin was used for positive controls at 0.2 mg/ml while an equivalent volume of acidified water was used for negative controls. The plates were then topped up with a final concentration of 1 × Mueller Hinton Broth (MHB) and incubated for 18 h under the same incubation conditions. MIC was detected as the lowest concentration of each cryptide that prevents the optically detectable microbial growth at OD = 600 nm.

MRSA [2] = format: cell-based, Methicillin-resistant Staphylococcus aureus (ATCC, BAA-41); details: micro-broth dilution, 3 h peptide treatment then MHB 18 h, 37 °C, OD 600 nm
From the text: as §1, §2

S. enterica [3] = format: cell-based, Salmonella enterica (ATCC, 14028); details: micro-broth dilution, 3 h peptide treatment then MHB 18 h, 37 °C, OD 600 nm
From the text: as §1, §2

P. aeruginosa [4] = format: cell-based, Pseudomonas aeruginosa (ATCC, 10145); details: micro-broth dilution, 3 h peptide treatment then MHB 18 h, 37 °C, OD 600 nm
From the text: as §1, §2

C. albicans [5] = format: cell-based, Candida albicans (TIMM, 1768); details: micro-broth dilution, 3 h peptide treatment then MHB 18 h, 37 °C, OD 600 nm
From the text: as §1, §2

[6] = test system: the different tested pathogens; format: cell-based; details: span over tested pathogens, undetected values disregarded
From the text: as §1, §2

[7] = test system: S. enterica mature biofilm; assay: Antibiofilm microtiter plate assay (mature biofilm, crystal violet); format: cell-based, Salmonella enterica (ATCC, 14028); details: tested 12.5-200 µM
Protocol: The antibiofilm activities of the selected cryptides against S. enterica and MRSA mature biofilms were examined by microtiter plate assay as previously described, with slight modification. During the mid-logarithmic phase, S. enterica and MRSA were suspended at the density of 1.7 × 10^8 CFU/ml in MHB. Then 100 µl of each bacterial suspension was dispensed into a vinyl 96 U-shaped-well plate and incubated overnight at 37 °C. The mature biofilms were washed with 10 mM Tris–HCl containing 5 mM D-glucose at pH 7.4 and treated for 8 h with 100 µl of two-fold serially diluted cryptides, under the same incubation conditions. A sterile MHB medium was used as the positive control while an equivalent volume of acidified water was used to treat the negative controls. The treated biofilms were washed twice with the same washing buffer and stained with 0.1% crystal violet for 15 min followed by rinsing with sterile distilled water twice and then dried for 30 min at 37 °C. The stain was dissolved with 33% acetic acid and transferred to an optically clear 96-well flat bottom plate which was then measured at 600 nm.
Table S.4 Antibiofilm activities of the selected Cryptides against S. enterica and MRSA. Microbial cells were suspended at 1.7 X 10^8 CFU/ml density, during the mid-logarithmic phase in MHB. Then, 96 U-shaped -well plates were inoculated with 100 µl of microbial suspension and incubated for 48 h at 37 °C. The formed biofilms were washed with 10 mM Tris-HCl and treated with 100 µl of different concentrations of each peptide for 24 h. The treated biomasses were washed and fixed with methanol for 15 min at -20 °C before staining with 0.1 % crystal violet. The stained biofilms were dissolved in 100 µl of 33 % acetic acid and the quantities of crystal violet stains were determined by measuring absorbance at 600 nm as an indicator of the remaining biomass after treatment. Untreated cells were used as negative control [indicating 100 % biofilm integrity] while the sterile medium was used as a positive control [indicating 0 % biofilm integrity].
S. enterica MRSA S. enterica MRSA S. enterica MRSA S. enterica MRSA S. enterica MRSA

Caco-2 = format: cell-based, human; details: 24 h, serum-free medium, MTT, 37 °C, 5% CO2; mean ± SD
Protocol: (§3) The used mammalian cell lines in our study were colorectal adenocarcinoma (Caco2, ATCC-HTB-37), colorectal carcinoma (HCT 116, ATCC-CCL-247), lung carcinoma (A549, ATCC- CCL-185), cervical cancer cells (HeLa, ATCC-CCL-2), neuroblastoma (SH-SY5Y, ATCC- CRL-2266), rhabdomyosarcoma (RD, ATCC- CCL-136) and human embryonic kidney cells (HEK 293, ATCC- CRL-1573). All the cells were maintained into Dulbecco’s Modified Eagle’s Medium (DMEM) supplemented with 10% heat-inactivated fetal bovine serum, 2 mM L-Glutamine, 100 U/ml penicillin–streptomycin (Pen/Strep) at 37 °C in 5% CO2 humidified incubator.
(§4) First, the cytotoxic effect of 24 h serum deprivation on all the selected cell lines was evaluated by MTT assay, following standard protocols. Briefly, cells were seeded and maintained at 37 °C and 5% CO2 in 24-well plates until they reached 75–80% confluency (zero time). Following washing twice with 1X PBS, cells were incubated in a serum-free medium for 24 h, under the same incubation conditions. The cell viability percentages were calculated and compared to zero time as 100% viability to nullify any possible effects of serum deprivation. Thence, the cell viability percentage of each cell line in response to 24 h treatment with different concentrations of each cryptide in serum-free medium was calculated. […] All the measured cell viability percentages were normalised against the corresponding negative controls.

HeLa = format: cell-based, human; details: 24 h, serum-free medium, MTT, 37 °C, 5% CO2; mean ± SD
Protocol: as §3, §4

[8] = format: cell-based; details: 24 h, serum-free medium, MTT, 37 °C, 5% CO2; mean ± SD; read-out: IC50 (µM) A459
Protocol: as §3, §4

RD = format: cell-based; details: 24 h, serum-free medium, MTT, 37 °C, 5% CO2; mean ± SD
Protocol: as §3, §4

SH-SY5Y = format: cell-based; details: 24 h, serum-free medium, MTT, 37 °C, 5% CO2; mean ± SD
Protocol: as §3, §4

HEK-293 = assay: MTT cytotoxicity on normal cells; format: cell-based, human; details: 25 µM (highest tested concentration), 24 h, serum-free medium
Protocol: as §3, §4

B. subtilis [9] = format: cell-based, Bacillus subtilis (ATCC, 11774); details: 20 µl of wells without growth on agar, 18 h, 37 °C
MRSA [10] = format: cell-based, Methicillin-resistant Staphylococcus aureus (ATCC, BAA-41); details: 20 µl of wells without growth on agar, 18 h, 37 °C
S. enterica [11] = format: cell-based, Salmonella enterica (ATCC, 14028); details: 20 µl of wells without growth on agar, 18 h, 37 °C
P. aeruginosa [12] = format: cell-based, Pseudomonas aeruginosa (ATCC, 10145); details: 20 µl of wells without growth on agar, 18 h, 37 °C
C. albicans [13] = format: cell-based, Candida albicans (TIMM, 1768); details: 20 µl of wells without growth on Sabouraud 4% Dextrose Agar, 18 h, 37 °C
HCT 116 = format: cell-based, human; details: 24 h, serum-free medium, MTT, 37 °C, 5% CO2; mean ± SD
Protocol: as §3, §4

human RBCs = assay: Hemolytic assay; format: cell-based; details: 2% RBCs in PBS, 2 h, 37 °C, supernatant at 450 nm, 0.1% TritonX-100 = maximum; highest tested concentration 100 µM
Protocol: All methods were carried out in accordance with the Declaration of Helsinki, and the Research Ethics Committee approved all experimental protocols at Sunway University (approval no. PGSUREC2020/005). A human blood sample was collected from a healthy person for this assay upon obtaining informed consent. The fresh blood sample was centrifuged at 3700 g for 5 min at RT. The supernatant (serum) was removed and red blood cells (RBCs) were washed three times with 1X PBS and diluted to a final concentration of 2% (PBS—137 mM NaCl, 2.7 mM KCl, 10 mM Na2HPO4, 1.76 mM KH2PO4). Cells were stored at 4 °C, and used within 5 h.
The hemolytic activities of the identified cryptides were evaluated as previously described. The prepared RBCs were treated with different peptide concentrations for 2 h at 37 °C. The treated RBCs were centrifuged, under the same centrifugation conditions, and the supernatants were transferred to a 96-well plate and measured at 450 nm.

Structure (SMILES) | MIC (µM) B. subtilis (B. subtilis [1]) | MIC (µM) MRSA (MRSA [2]) | MIC (µM) S. enterica (S. enterica [3]) | MIC (µM) P. aeruginosa (P. aeruginosa [4]) | MIC (µM) C. albicans (C. albicans [5]) | Minimal biofilm eradication concentration (MBEC) S. enterica [7] | IC50 (Caco-2) | IC50 (HeLa) | IC50 [8] | IC50 (RD) | IC50 (SH-SY5Y) | Cell death of HEK-293 (HEK-293) | MBC (µM) B. subtilis (B. subtilis [9]) | MBC (µM) MRSA (MRSA [10]) | MBC (µM) S. enterica (S. enterica [11]) | MBC (µM) P. aeruginosa (P. aeruginosa [12]) | MFC (µM) C. albicans (C. albicans [13]) | also measured
CC(C)[C@H](NC(=O)[C@H](CO)NC(=O)[C@H](Cc1ccccc1)NC(=O)[C@H](CC(N)=O)NC(=O)[C@H](CS)NC(=O)[C@H](Cc1ccc(O)cc1)NC(=O)[C@H](Cc1c[nH]cn1)NC(=O)CN)C(=O)N[C@H](C(=O)N1CCC[C@H]1C(=O)N[C@@H](CCCCN)C(=O)N[C@@H](Cc1ccccc1)C(=O)N[C@@H](CCCCN)C(=O)N[C@@H](CCCNC(=N)N)C(=O)N[C@@H](Cc1c[nH]c2ccccc12)C(=O)O)[C@@H](C)O [AD8] (H-GHYCNFSVTPKFKRW-OH) | 0.78 µM (≈ 1.46 µg/mL) | 3.12 µM (≈ 5.83 µg/mL) | 0.78 µM (≈ 1.46 µg/mL) | 25 µM (≈ 46.8 µg/mL) | 6.25 µM (≈ 11.7 µg/mL) | 200 µM | 4.4 ± 0.5 µM | 42.6 ± 0.3 µM | 7.3 ± 0.5 µM | 27.2 ± 0.4 µM | 23.3 ± 0.7 µM | less than 10% | 0.78 µM (≈ 1.46 µg/mL) | 12.5 µM (≈ 23.4 µg/mL) | 0.78 µM (≈ 1.46 µg/mL) | 50 µM (≈ 93.5 µg/mL) | 6.25 µM (≈ 11.7 µg/mL) | MBC values, range against the different tested pathogens [6]: 0.78 ~ 50 µM; MIC values, range against the different tested pathogens [6]: 0.78 ~ 25 µM
CC(C)C[C@H](NC(=O)[C@H](C)NC(=O)[C@H](Cc1ccccc1)NC(=O)[C@@H](N)Cc1ccccc1)C(=O)N[C@@H](CCC(N)=O)C(=O)N[C@@H](CS)C(=O)N[C@@H](C)C(=O)N[C@@H](C)C(=O)N[C@@H](CCCCN)C(=O)N[C@H](C(=O)N[C@@H](CCCNC(=N)N)C(=O)N[C@H](C(=O)N[C@@H](CCCNC(=N)N)C(=O)N[C@@H](CCCNC(=N)N)C(=O)N[C@H](C(=O)O)C(C)C)[C@@H](C)O)[C@@H](C)O [AD12] (H-FFALQCAAKTRTRRV-OH) | 0.78 µM (≈ 1.38 µg/mL) | 6.25 µM (≈ 11.1 µg/mL) | 0.78 µM (≈ 1.38 µg/mL) | 12.5 µM (≈ 22.1 µg/mL) | 12.5 µM (≈ 22.1 µg/mL) | 200 µM | 4.35 µM | 8.5 ± 0.5 µM | 9.4 ± 1 µM | 159 µM | – | less than 10% | 0.78 µM (≈ 1.38 µg/mL) | 25 µM (≈ 44.2 µg/mL) | 0.78 µM (≈ 1.38 µg/mL) | 25 µM (≈ 44.2 µg/mL) | 12.5 µM (≈ 22.1 µg/mL) | –
N.N.[Cl][Pt][Cl] [Cisplatin, reference compound] | – | – | – | – | – | – | – | 63.6 ± 0.4 µM | 15.3 ± 0.6 µM | 74 ± 1.2 µM | 54.4 ± 0.8 µM | – | – | – | – | – | – | IC50 (µM) HCT 116 (HCT 116): resistant; Hemolysis of human RBCs at 100 µM (human RBCs): less than 10%

Reference: article PMC10482825 (Scientific Reports, 2023)
